From paper PMC11843629, “Development of ketobenzothiazole-based peptidomimetic TMPRSS13 inhibitors with low nanomolar potency” (Journal of Enzyme Inhibition and Medicinal Chemistry, 2025) come the findings set out here.

Substitutions are numbered along the chain they refer to. Read-outs that look alike come from different tables or passages of the source.

Data set [1] deals with T1, TMPRSS13 (Homo sapiens, UniProt Q9BYE2, K566A/R563A/R565A).
T1 construct: Shedding of the TMPRSS13 catalytic domain was detected for both constructs in the cell media; made in house; host or cells: Expi293F cells
T1 sequence (Q9BYE2 with tags, fused parts or gaps isoform Q9BYE2-6 limits assumed): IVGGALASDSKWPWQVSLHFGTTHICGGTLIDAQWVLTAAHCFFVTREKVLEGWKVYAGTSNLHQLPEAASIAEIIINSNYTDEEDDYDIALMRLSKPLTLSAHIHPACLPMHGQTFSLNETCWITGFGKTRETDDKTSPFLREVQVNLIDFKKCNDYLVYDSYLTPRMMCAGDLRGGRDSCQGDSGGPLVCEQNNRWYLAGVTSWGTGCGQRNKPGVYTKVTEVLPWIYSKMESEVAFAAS
The data set is described as follows: In vitro inhibition assay, recombinant TMPRSS13-AFAAS-6His, Boc-RVRR-AMC. The data set is classed as biochemical. The settings on record: dose-response curve, Cheng-Prusoff equation. On the procedure:
TMPRSS13-AFAAS-6His was expressed via the Expi293 Expression System Kit (Thermo Fisher Scientific, A14635) according to the manufacturer’s instructions and purified via IMAC chromatography. Briefly, Expi293F cells were transfected for 48 h with the TMPRSS13-AFAAS-6His construct, and media containing the shed recombinant protease was injected on a HisTrap Excel column (Cytiva, 17371206) via an ÄKTA Start protein purification system (Cytiva). The bound proteins were then eluted (20 mM sodium phosphate pH 7.4, 500 mM NaCl, and 500 mM imidazole), and the TMPRSS13-containing fractions were dialysed for 16 h at 4 °C in storage buffer (20 mM sodium phosphate pH 7.4, 150 mM NaCl, and 10% glycerol). Proteins were then concentrated via a 10 kDa Amicon Ultra centrifugal filter (Millipore Sigma, UFC8010) and stored at −80 °C.
(§1) Recombinant TMPRSS13-AFAAS-6His (this study) and matriptase[34] were expressed and purified as described. Recombinant human furin, Factor Xa (R&D Systems) and thrombin (MilliporeSigma) were obtained from commercial sources. Assays were performed in a buffer composed of 50 mM HEPES pH 7.4, 1 mM β-mercaptoethanol, 1 mM CaCl2 and 500 μg/ml BSA for furin and 50 mM HEPES pH 7.4, 150 mM NaCl and 0.1% BSA for other proteases. Assays were performed at room temperature using fluorogenic substrates (Boc-RVRR-AMC for furin and TMPRSS13, Boc-QAR-AMC for other proteases). The enzymatic activity was measured via fluorescence (excitation at 360 nm and emission at 460 nm) at room temperature using an HTX Synergy microplate reader (Agilent). Kis for TMPRSS13 and Factor Xa (FXa) were derived from IC50 dose–response curves using the Cheng-Prusoff equation[35] for reversible competitive inhibitors. For matripase, a plot of the enzyme velocity as a function of the inhibitor concentration was fitted with nonlinear regression analysis via the Morrison Ki equation[36] for competitive tight-binding inhibitors.

The target of data set [2] is T2, WT TMPRSS13 (Homo sapiens, UniProt Q9BYE2).
T2 construct: the full length TMPRSS13 (TMPRSS13-WT); expressed in transfected cells; host or cells: Vero C1008 (Vero E6) cells
T2 sequence (Q9BYE2 326-567 isoform Q9BYE2-6 limits assumed): T1 sequence (Q9BYE2 with tags, fused parts or gaps isoform Q9BYE2-6 limits assumed) with A238R, A240R, A241K
The experiment in a line: In cellulo inhibitory activity in TMPRSS13-transfected Vero cells. The settings on record: 10 µM compound, 24 h, media, relative to DMSO; for remaining activity at 10 µM: read-out: residual activity of TMPRSS13. The data set is classed as cell-based. How it is done:
Vero C1008 cells were grown in 12-well plates (200K cells per well) and transfected for 24 h via Lipofectamine 3000 (Life Technologies) with one of the following plasmids: pcDNA3.1 (empty vector, EV), pcDNA3.1-TMPRSS13 WT or pcDNA3.1-TMPRSS13-AFAAS-6His. The cells were then washed 2 times with PBS before HCell-100 medium (Wisent) containing the indicated concentrations of each compound or the control condition (0.01% DMSO) was added. After 24 h of incubation with the compounds, the medium was harvested, and 90 μL was placed in 96-well plate wells with 10 µL of 200 μM Boc-RVRR-AMC. Fluorescence was acquired at room temperature in an FLx800 TBE microplate reader, with excitation at 360 nm and emission at 460 nm. The background was then subtracted by removing the signal recorded with the cells transfected with the empty vector (pcDNA3.1). Proteolytic activity results are represented as a percentage of the DMSO-treated condition. The IC50 was calculated via nonlinear regression of the compound concentration relative to the velocity.

Data set [3] has as its system human trypsin. The experiment in a line: Proteolysis assay (stability) with human trypsin. The data set is classed as in vitro ADME. As to conditions: human trypsin (isolated protease), pH 7.4, compound final conc. 10 µM, 37 °C. How it is done:
For the proteolysis assay, human trypsin (#T6424, Sigma–Aldrich, Saint-Louis, Missouri, USA) was resuspended in 1 mM HCl and 20 mM CaCl2, pH 3, and diluted to a final concentration of 0.1 mg/ml in PBS buffer (pH 7.4, 10 mM PO43-, 150 mM NaCl). The control peptide R8 and the compounds of interest were added to a 96-well plate (37 °C) to a final concentration of 10 µM. Trypsin (0.1 µg/ml) was added to the wells for 0, 0.5, 1, 2, 4 and 6 h. The plate was quenched with AcN/EtOH (1:1) 1% formic acid and 0.25 mM N,N-dimethylbenzamide (IS) and centrifuged at 4 °C.

Data set [4] is described as follows: in vitro. As to conditions: final conc. 0.2 mM, 37 °C. An excerpt: Adult male Sprague-Dawley rats, weighing between 225 and 300 g (Charles River Laboratories, St. Constant, Canada), were housed in groups of four per double-decker cage on Aspen shavings in a quiet environment. They were maintained under a 12-h light/dark cycle with unrestricted access to food and water. All experimental protocols received approval from the Animal Care Committee of the Université de Sherbrooke, adhering to the Canadian Council on Animal Care guidelines. The procedures also followed the ARRIVE guidelines (Animals in Research: Reporting In Vivo Experiments) and the United States NIH regulations (Ethics approval ID: 2022–3440). To evaluate the stability of compounds in plasma, 6 rats were anaesthetised with 2 L/min oxygen and 5% isoflurane, after which plasma was collected, pooled, and stored frozen until experiments were performed.
For evaluating plasma stability, rats were anaesthetised using a flow of 2 L/min of oxygen combined with 5% isoflurane. Blood was obtained via cardiac puncture from the left ventricle using a 20 G ½ needle, collected in pre-chilled Vacutainer K2EDTA tubes (367861), and maintained on wet ice. The blood was then centrifuged at 2000 xG for 15 min at 4 °C. Plasma samples were pooled from six rats, aliquoted, and stored at −80 °C. […] To terminate the reaction, 140 μL of a 1:1 acetonitrile-ethanol solution containing 0.25 mM N,N-dimethylbenzamide (used as an internal standard) was added. The resulting mixture was transferred onto an Impact Protein Precipitation filter plate (Phenomenex, California), with a 96-well UPLC plate positioned below to collect the filtrates. Both plates were centrifuged at 500 × g for 10 min at 4 °C. The filtrates were diluted with 30 μL of distilled water before analysis using an Acquity UPLC-MS system class H (column Acquity UPLC protein BEH C18 (2.1 mm × 50 mm), 1.7 μm particles, 130 Å pore size). The peptide’s half-life was determined from the degradation profile utilising the exponential one-phase decay function in GraphPad Prism 9. Mass spectra obtained at time points close to the calculated half-life were compared with those at 0 min (plasma inactivated prior to compound addition) to identify cleavage fragments.

The target in data set [5] is T3, matriptase (Homo sapiens, UniProt Q9Y5Y6).
T3 construct: made in house
T3 sequence (Q9Y5Y6 1-855): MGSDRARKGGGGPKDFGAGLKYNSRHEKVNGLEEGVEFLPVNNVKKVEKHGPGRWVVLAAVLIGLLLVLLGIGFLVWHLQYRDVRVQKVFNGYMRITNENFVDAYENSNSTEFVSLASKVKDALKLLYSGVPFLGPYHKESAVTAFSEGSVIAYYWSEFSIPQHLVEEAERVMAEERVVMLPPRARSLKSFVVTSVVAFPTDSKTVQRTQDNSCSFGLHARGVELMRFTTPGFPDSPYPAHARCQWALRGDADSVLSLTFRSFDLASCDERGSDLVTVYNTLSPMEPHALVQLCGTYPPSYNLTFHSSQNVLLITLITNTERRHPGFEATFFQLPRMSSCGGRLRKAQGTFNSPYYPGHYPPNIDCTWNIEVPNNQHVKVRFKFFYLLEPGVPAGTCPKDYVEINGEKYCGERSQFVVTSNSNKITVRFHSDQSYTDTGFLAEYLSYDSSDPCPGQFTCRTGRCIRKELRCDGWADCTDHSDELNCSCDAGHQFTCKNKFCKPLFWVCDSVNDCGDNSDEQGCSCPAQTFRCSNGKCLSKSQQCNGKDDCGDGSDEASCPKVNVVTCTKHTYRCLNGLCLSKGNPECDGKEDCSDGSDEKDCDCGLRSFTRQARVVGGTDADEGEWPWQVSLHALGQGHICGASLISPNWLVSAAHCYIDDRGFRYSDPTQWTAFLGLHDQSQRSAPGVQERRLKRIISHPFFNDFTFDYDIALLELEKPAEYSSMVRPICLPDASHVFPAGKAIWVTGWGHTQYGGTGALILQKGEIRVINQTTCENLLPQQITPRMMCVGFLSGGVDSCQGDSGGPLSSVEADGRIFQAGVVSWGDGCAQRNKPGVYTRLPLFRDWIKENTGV
The data set is described as follows: In vitro inhibition assay, matriptase, Boc-QAR-AMC. The data set is classed as biochemical. As to conditions: Morrison Ki equation, tight-binding. How it is done:
as §1

The target in data set [6] is T4, thrombin (Homo sapiens, UniProt P00734).
T4 construct: purchased MilliporeSigma
The experiment in a line: In vitro inhibition assay, thrombin, Boc-QAR-AMC. The data set is classed as biochemical. How it is done:
as §1

The target in data set [7] is T5, furin (Homo sapiens, UniProt P09958).
T5 construct: purchased R&D Systems
T5 sequence (P09958 108-794): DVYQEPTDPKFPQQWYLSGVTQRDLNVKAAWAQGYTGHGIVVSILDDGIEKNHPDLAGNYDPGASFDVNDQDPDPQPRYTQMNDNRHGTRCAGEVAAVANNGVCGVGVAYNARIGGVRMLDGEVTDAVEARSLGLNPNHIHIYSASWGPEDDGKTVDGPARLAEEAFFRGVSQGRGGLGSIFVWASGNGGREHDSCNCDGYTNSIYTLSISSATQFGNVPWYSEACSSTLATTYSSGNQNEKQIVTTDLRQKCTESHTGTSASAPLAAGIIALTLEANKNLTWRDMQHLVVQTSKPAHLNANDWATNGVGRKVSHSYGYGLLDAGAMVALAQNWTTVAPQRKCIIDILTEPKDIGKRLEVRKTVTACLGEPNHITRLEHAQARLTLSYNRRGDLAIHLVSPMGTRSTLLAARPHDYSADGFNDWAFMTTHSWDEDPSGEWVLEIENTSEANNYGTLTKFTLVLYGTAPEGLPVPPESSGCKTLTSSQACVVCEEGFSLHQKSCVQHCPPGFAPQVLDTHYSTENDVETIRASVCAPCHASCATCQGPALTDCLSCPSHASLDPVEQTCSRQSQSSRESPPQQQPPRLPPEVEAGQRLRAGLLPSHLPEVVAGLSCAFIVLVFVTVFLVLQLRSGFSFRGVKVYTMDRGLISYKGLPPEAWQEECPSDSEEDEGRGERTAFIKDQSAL
The experiment in a line: In vitro inhibition assay, furin, Boc-RVRR-AMC. The data set is classed as biochemical. On the procedure:
as §1

Data set [8] deals with T6, Factor Xa (Homo sapiens, UniProt P00742).
T6 construct: purchased R&D Systems
T6 sequence (P00742 235-488 limits assumed): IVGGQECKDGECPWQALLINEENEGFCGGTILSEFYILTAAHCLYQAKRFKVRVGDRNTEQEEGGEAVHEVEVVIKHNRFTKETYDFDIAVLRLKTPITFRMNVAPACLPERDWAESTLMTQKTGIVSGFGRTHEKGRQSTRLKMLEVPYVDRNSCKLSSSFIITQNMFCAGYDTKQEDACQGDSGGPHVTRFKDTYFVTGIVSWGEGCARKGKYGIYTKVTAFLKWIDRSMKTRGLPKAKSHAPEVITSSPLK
T6 sequence (P00742 41-179 partner limits assumed): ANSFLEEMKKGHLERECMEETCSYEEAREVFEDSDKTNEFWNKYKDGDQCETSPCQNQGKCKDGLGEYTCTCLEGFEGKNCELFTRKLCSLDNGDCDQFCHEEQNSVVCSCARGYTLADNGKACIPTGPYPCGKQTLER
The experiment in a line: In vitro inhibition assay, Factor Xa, Boc-QAR-AMC. The data set is classed as biochemical. The settings on record: Cheng-Prusoff equation. How it is done:
as §1

As usually defined, the Ki is the dissociation constant of the complex between target and ligand, obtained from inhibition or displacement. In the case of `C[C@H](NC(=O)[C@H](CCC(N)=O)NC(=O)[C@@H](N)CCCNC(=N)N)C(=O)N[C@@H](CCCNC(=N)N)C(=O)c1nc2ccccc2s1` [Compound N-0100], the inhibition constant Ki in data set [1] turned out to be 31.4 nM.

Take `N=C(N)NCCC[C@H](NC(=O)[C@H](Cc1ccc(O)cc1)NC(=O)[C@H](CCC(N)=O)NC(=O)[C@@H](N)CCCNC(=N)N)C(=O)c1nc2ccccc2s1` [Compound N-0108]: the Ki in data set [1] was 22.3 nM.

As usually defined, the half-life is the time needed for the level to fall by half in the phase considered. A lower half-life goes with fast loss. Regarding `N=C(N)NCCC[C@H](NC(=O)[C@H](CCc1ccccc1)NC(=O)[C@H](CCC(N)=O)NC(=O)[C@@H](N)CCCNC(=N)N)C(=O)c1nc2ccccc2s1` [Compound N-0159, RQhFR-kbt], in data set [1], the Ki was 10.3 nM. For the same molecule, the remaining activity at 10 µM in data set [2] worked out at 37.7%. In addition, the half-life at 10 µM in data set [3] is 2300 min. Further, the half-life at 0.2 mM in data set [4] (male, Sprague-Dawley, rat, pooled rat plasma (K2EDTA), Mean half-life, Plasma) was determined as 9 min. Further, the “Mean half-life, Plasma” value in data set [4] (rat plasma (male)) is given as 8.97 min.

Consider `N=C(N)NCCC[C@H](NC(=O)[C@H](Cc1ccc(F)cc1)NC(=O)[C@H](CCC(N)=O)NC(=O)[C@@H](N)CCCNC(=N)N)C(=O)c1nc2ccccc2s1` [Compound N-0136], for which the inhibition constant Ki in data set [1] turned out to be 17.7 nM.

As for `N=C(N)NCCC[C@H](NC(=O)[C@@H]1CCCN1C(=O)[C@H](CCC(N)=O)NC(=O)[C@@H](N)CCCNC(=N)N)C(=O)c1nc2ccccc2s1` [Compound N-0107, RQPR-kbt], the inhibitory constant (Ki) in data set [1] worked out at 14.7 nM.

On to `N=C(N)NCCCCC(=O)N[C@@H](CCC(N)=O)C(=O)N[C@@H](CCc1ccccc1)C(=O)N[C@@H](CCCNC(=N)N)C(O)c1nc2ccccc2s1` (stereo partly drawn) [N-0430(OH), (H)-RQhFR-(OH)bt], for which the Ki in data set [1] was above 10000 nM.

As for `N=C(N)NCCC[C@H](NC(=O)[C@H](Cc1ccccc1)NC(=O)CCCC(N)=O)C(=O)c1nc2ccccc2s1` [Compound N-0388, (H)-QFR-Kbt], the Ki was 24.2 nM in data set [5]; above 10 µM in data set [6]; 1440 nM in data set [1]; above 10 µM in data set [7]; 1200 ± 167 nM in data set [8]. Further, the “residual activity of TMPRSS13” value in data set [2] (10 µM) is given as 92%. In data set [2] (Vero), the remaining activity at 10 µM was found to be 72%.

With `C[C@H](NC(=O)[C@H](CCC(N)=O)NC(=O)[C@H](CCCNC(=N)N)NC(=O)c1ccccc1)C(=O)N[C@@H](CCCNC(=N)N)C(=O)c1nc2ccccc2s1` [Compound N-0182, PhCO-RQAR-Kbt], the Ki in data set [1] was 28.5 nM.

In the case of `C[C@H](NC(=O)CCCCNC(=N)N)C(=O)N[C@@H](Cc1ccccc1)C(=O)N[C@@H](CCCNC(=N)N)C(=O)c1nc2ccccc2s1` [Compound N-0439, (H)-RAFR-Kbt], the Ki in data set [1] came to 35.9 nM.

For the molecule `N=C(N)NCCCCC(=O)N[C@@H](CCC(N)=O)C(=O)N[C@@H](CC1CCCCC1)C(=O)N[C@@H](CCCNC(=N)N)C(=O)c1nc2ccccc2s1` [Compound N-0678], the Ki in data set [1] was 30 nM.

As for `C[C@H](NC(=O)[C@H](CCC(N)=O)NC(=O)[C@@H](N)CCCCNC(=N)N)C(=O)N[C@@H](CCCNC(=N)N)C(=O)c1nc2ccccc2s1` [Compound N-0179], the Ki in data set [1] was 24.8 nM.
